Experiment: molar heat capacity at constant pressure
Conditions: 101.33 kPa, Crystal 1

O=P([O-])([O-])[O-].[Fe+2].[Li+] [iron(II) lithium phosphate]
Conditions	molar heat capacity at constant pressure [J/K/mol]
66.42 K, relaxation calorimetry	28.2
67.51 K, relaxation calorimetry	28.84
68.59 K, relaxation calorimetry	29.48
69.68 K, relaxation calorimetry	30.12
70 K, combination of DSC and relaxation calorimetry	30.31
70.77 K, relaxation calorimetry	30.78
71.15 K, relaxation calorimetry	31.26
73.24 K, relaxation calorimetry	32.53
75.34 K, relaxation calorimetry	33.86
77.43 K, relaxation calorimetry	35.17
79.53 K, relaxation calorimetry	36.46
80 K, combination of DSC and relaxation calorimetry	36.84
81.62 K, relaxation calorimetry	37.8
83.72 K, relaxation calorimetry	39.15
85.81 K, relaxation calorimetry	40.41
87.9 K, relaxation calorimetry	41.69
90 K, combination of DSC and relaxation calorimetry	43.39
90 K, relaxation calorimetry	42.91
92.09 K, relaxation calorimetry	44.24
94.19 K, relaxation calorimetry	45.59
96.28 K, relaxation calorimetry	46.89
98.38 K, relaxation calorimetry	48.18
100 K, combination of DSC and relaxation calorimetry	49.48
100.47 K, relaxation calorimetry	49.44
102.56 K, relaxation calorimetry	50.67
104.65 K, relaxation calorimetry	52.08
106.73 K, relaxation calorimetry	53.17
108.85 K, relaxation calorimetry	54.37
110 K, combination of DSC and relaxation calorimetry	55.21
110.94 K, relaxation calorimetry	55.54
113.02 K, relaxation calorimetry	56.62
115.13 K, relaxation calorimetry	58.05
117.22 K, relaxation calorimetry	59.3
119.27 K, relaxation calorimetry	60.39
119.96 K, relaxation calorimetry	60.87
120 K, combination of DSC and relaxation calorimetry	60.65
120.69 K, relaxation calorimetry	61.12
121.4 K, relaxation calorimetry	61.55
122.12 K, relaxation calorimetry	61.93
122.83 K, relaxation calorimetry	62.24
123.54 K, relaxation calorimetry	62.63
124.25 K, relaxation calorimetry	63.1
124.96 K, relaxation calorimetry	63.45
125.68 K, relaxation calorimetry	63.84
126.36 K, relaxation calorimetry	64.12
127.07 K, relaxation calorimetry	64.49
127.81 K, relaxation calorimetry	64.96
130 K, combination of DSC and relaxation calorimetry	65.85
131.36 K, relaxation calorimetry	66.82
140 K, combination of DSC and relaxation calorimetry	70.83
141.32 K, relaxation calorimetry	71.82
150 K, combination of DSC and relaxation calorimetry	75.59
151.46 K, relaxation calorimetry	76.8
160 K, combination of DSC and relaxation calorimetry	80.13
161.54 K, relaxation calorimetry	81.23
170 K, combination of DSC and relaxation calorimetry	84.45
171.6 K, relaxation calorimetry	85.36
180 K, combination of DSC and relaxation calorimetry	88.56
181.68 K, relaxation calorimetry	89.21
190 K, combination of DSC and relaxation calorimetry	92.44
191.78 K, relaxation calorimetry	93.16
200 K, combination of DSC and relaxation calorimetry	96.11
201.84 K, relaxation calorimetry	97.49
210 K, combination of DSC and relaxation calorimetry	99.57
211.78 K, relaxation calorimetry	100.3
220 K, combination of DSC and relaxation calorimetry	102.8
222.01 K, relaxation calorimetry	103.27
230 K, combination of DSC and relaxation calorimetry	105.9
232.1 K, relaxation calorimetry	105.66
240 K, combination of DSC and relaxation calorimetry	108.7
242.04 K, relaxation calorimetry	108.22
250 K, combination of DSC and relaxation calorimetry	111.4
252.15 K, relaxation calorimetry	110.6
260 K, combination of DSC and relaxation calorimetry	113.9
262.34 K, relaxation calorimetry	112.67
270 K, combination of DSC and relaxation calorimetry	116.3
272.43 K, relaxation calorimetry	114.97
280 K, combination of DSC and relaxation calorimetry	118.4
282.56 K, relaxation calorimetry	117.79
284.9 K, Small sample (50 mg) DSC	120.8
290 K, combination of DSC and relaxation calorimetry	120.5
292.55 K, relaxation calorimetry	120.06
293.2 K, Large sample (1 g) DSC	120.85
294.8 K, Small sample (50 mg) DSC	122.5
298.15 K, combination of DSC and relaxation calorimetry	122.1
300 K, combination of DSC and relaxation calorimetry	122.4
302.7 K, relaxation calorimetry	120.5
304.6 K, Small sample (50 mg) DSC	126.1
313.2 K, Large sample (1 g) DSC	125.4
314.5 K, Small sample (50 mg) DSC	128.2
320 K, combination of DSC and relaxation calorimetry	129
324.4 K, Small sample (50 mg) DSC	129.7
333.2 K, Large sample (1 g) DSC	128
334.4 K, Small sample (50 mg) DSC	132.2
340 K, combination of DSC and relaxation calorimetry	133.4
344.3 K, Small sample (50 mg) DSC	134.8
353.2 K, Large sample (1 g) DSC	130.1
354.2 K, Small sample (50 mg) DSC	136.3
360 K, combination of DSC and relaxation calorimetry	137.6
364.1 K, Small sample (50 mg) DSC	137.9
374 K, Small sample (50 mg) DSC	140.2
380 K, combination of DSC and relaxation calorimetry	141.6
383.9 K, Small sample (50 mg) DSC	142.9
393.8 K, Small sample (50 mg) DSC	145.5
400 K, combination of DSC and relaxation calorimetry	145.3
403.8 K, Small sample (50 mg) DSC	147
413.7 K, Small sample (50 mg) DSC	148.9
420 K, combination of DSC and relaxation calorimetry	148.7
423.6 K, Small sample (50 mg) DSC	150.3
433.5 K, Small sample (50 mg) DSC	151.6
440 K, combination of DSC and relaxation calorimetry	151.9
443.4 K, Small sample (50 mg) DSC	152.8
453.3 K, Small sample (50 mg) DSC	154
460 K, combination of DSC and relaxation calorimetry	154.9
463.3 K, Small sample (50 mg) DSC	155
473.2 K, Small sample (50 mg) DSC	156.3
480 K, combination of DSC and relaxation calorimetry	157.7
483.1 K, Small sample (50 mg) DSC	157.5
493 K, Small sample (50 mg) DSC	159
500 K, combination of DSC and relaxation calorimetry	160.3
502.9 K, Small sample (50 mg) DSC	160
512.8 K, Small sample (50 mg) DSC	161
520 K, combination of DSC and relaxation calorimetry	162.7
522.7 K, Small sample (50 mg) DSC	162.2
532.6 K, Small sample (50 mg) DSC	163.4
540 K, combination of DSC and relaxation calorimetry	164.9
542.5 K, Small sample (50 mg) DSC	165
552.4 K, Small sample (50 mg) DSC	166.2
560 K, combination of DSC and relaxation calorimetry	167
562.3 K, Small sample (50 mg) DSC	167.1
572.3 K, Small sample (50 mg) DSC	168.3
580 K, combination of DSC and relaxation calorimetry	169
582.2 K, Small sample (50 mg) DSC	169.6
592.1 K, Small sample (50 mg) DSC	170.4
600 K, combination of DSC and relaxation calorimetry	170.9
602 K, Small sample (50 mg) DSC	171.1
611.9 K, Small sample (50 mg) DSC	173
620 K, combination of DSC and relaxation calorimetry	172.8
621.8 K, Small sample (50 mg) DSC	173.6
631.7 K, Small sample (50 mg) DSC	174.2
640 K, combination of DSC and relaxation calorimetry	174.5
641.6 K, Small sample (50 mg) DSC	174.9
651.6 K, Small sample (50 mg) DSC	175.7
660 K, combination of DSC and relaxation calorimetry	176.3
661.5 K, Small sample (50 mg) DSC	176.8
671.8 K, Small sample (50 mg) DSC	177.4
680 K, combination of DSC and relaxation calorimetry	178.1
681.3 K, Small sample (50 mg) DSC	178
691.3 K, Small sample (50 mg) DSC	178.7
700 K, combination of DSC and relaxation calorimetry	179.8
701.2 K, Small sample (50 mg) DSC	179.4
711.1 K, Small sample (50 mg) DSC	180.6
720 K, combination of DSC and relaxation calorimetry	181.6
721 K, Small sample (50 mg) DSC	181.6
730.9 K, Small sample (50 mg) DSC	182.4
740 K, combination of DSC and relaxation calorimetry	183.5
740.8 K, Small sample (50 mg) DSC	183.5
750.8 K, Small sample (50 mg) DSC	184.5
760 K, combination of DSC and relaxation calorimetry	185.5
760.7 K, Small sample (50 mg) DSC	185.7
770.6 K, Small sample (50 mg) DSC	186.9

From the NIST ThermoML archive (doi:10.1016/j.jct.2015.01.007)
